From ChEMBL document CHEMBL5149985, “Discovery of cytotoxic natural products from Red Sea sponges: Structure and synthesis” (Eur J Med Chem, 2021) come the findings set out here.

Experiment [1] has as its system P388. The experiment is described as follows: Anticancer activity against mouse P388 cells assessed as reduction in cell growth. Format: functional, cell-based.
In a further experiment the test system is PC-3. In words: Anticancer activity against human PC-3 cells assessed as inhibition of cell growth. In kind it is functional, cell-based.
Experiment [2] concerns A549. The experiment is described as follows: Anticancer activity against human A549 cells assessed as inhibition of cell growth. In kind it is functional, cell-based.
The test system of the next experiment is KB 3-1. The experiment is described as follows: Anticancer activity against human KB 3-1 cells assessed as inhibition in cell growth. In kind it is functional, cell-based.
In experiment [3] the test system is A549. In words: Anticancer activity against human A549 cells assessed as inhibition of cell growth by dilution assay. Format: functional, cell-based.
The subject of experiment [4] is HT-29. The experiment is described as follows: Anticancer activity against human HT-29 cells assessed as inhibition of cell growth by dilution assay. Format: functional, cell-based.
Experiment [5] relates to P388. The experiment is described as follows: Anticancer activity against mouse P388 cells assessed as inhibition of cell growth by dilution assay. In kind it is functional, cell-based.
Experiment [6] concerns P388. The experiment is described as follows: Anticancer activity against mouse P388 cells assessed as inhibition of cell growth. Format: functional, cell-based.
The test system of experiment [7] is HT-29. In words: Anticancer activity against human HT-29 cells assessed as inhibition of cell growth. In kind it is functional, cell-based.
The test system of experiment [8] is MCF7. The experiment is described as follows: Anticancer activity against human MCF7 cells assessed as inhibition of cell growth by MTT assay. In kind it is functional, cell-based. A general note: Tetrazolium assays rely on reduction of a dye to a coloured formazan, in cell work by metabolically active cells.
Experiment [9] has as its system HepG2. The experiment is described as follows: cells. As to conditions: Homo sapiens.
Description: Anticancer activity against human HepG2 cells assessed as inhibition of cell growth by MTT assay
In experiment [10] the test system is HCT-116. In words: cells. To be noted: Homo sapiens.
Description: Anticancer activity against human HCT-116 cells assessed as inhibition of cell growth by MTT assay
For experiment [11], the system named is A549. The experiment is described as follows: Antiproliferative activity against human A549 cells assessed as cell growth inhibition incubated for 72 hrs by SRB assay. In kind it is functional, cell-based. To be noted: A549, 72 h. (In general: In SRB staining, fixed cells bind dye roughly in proportion to their protein.)
Experiment [12] relates to MDA-MB-231. The experiment is described as follows: Antiproliferative activity against human MDA-MB-231 cells assessed as cell growth inhibition incubated for 72 hrs by SRB assay. Format: functional, cell-based. To be noted: MDA-MB-231, 72 h.
In experiment [13] the test system is HT-29. The experiment is described as follows: Antiproliferative activity against human HT-29 cells assessed as cell growth inhibition incubated for 72 hrs by SRB assay. In kind it is functional, cell-based. As to conditions: HT-29, 72 h.
The subject of experiment [14] is MCF7. The experiment is described as follows: Anticancer activity against human MCF7 cells assessed as inhibition of cell growth. In kind it is functional, cell-based.
In experiment [15] the test system is HepG2. In words: Anticancer activity against human HepG2 cells assessed as inhibition of cell growth. Format: functional, cell-based.
The next experiment has as its system Daoy. In words: Anticancer activity against human Daoy cells assessed as inhibition of cell growth. Format: functional, cell-based.
The test system of experiment [16] is HeLa. The experiment is described as follows: Anticancer activity against human HeLa cells assessed as inhibition of cell growth. Format: functional, cell-based.
Experiment [17] deals with HeLa. The experiment is described as follows: Antiproliferative activity against human HeLa cells assessed as cell viability measured after 24 hrs by MTT assay. In kind it is functional, cell-based.
The test system of experiment [18] is MDA-MB-231. The experiment is described as follows: Anticancer activity against human MDA-MB-231 cells assessed as cell viability measured after 24 hrs by MTT assay. To be noted: MDA-MB-231, 24 h. In kind it is functional, cell-based.
Experiment [19] has as its system HCT-116. In words: Antiproliferative activity against human HCT-116 cells assessed as cell viability measured after 24 hrs by MTT assay. In kind it is functional, cell-based. As to conditions: HCT-116, 24 h.
The next experiment deals with BT-474. In words: Anticancer activity against human BT-474 cells assessed as cell growth inhibition incubated for 48 hrs by MTT assay. To be noted: BT-474, 48 h. In kind it is functional, cell-based.
The test system of experiment [20] is A549. In words: Anticancer activity against human A549 cells assessed as inhibition of cell growth incubated for 24 hrs by MTT assay. In kind it is functional, cell-based. As to conditions: A549, 24 h.
For experiment [21], the system named is MCF7. In words: Anticancer activity against human MCF7 cells assessed as inhibition of cell growth incubated for 24 hrs by MTT assay. In kind it is functional, cell-based. To be noted: MCF7, 24 h.
In experiment [22] the test system is A549. The experiment is described as follows: Anticancer activity against human A549 cells assessed as cell growth inhibition. Format: functional, cell-based.

Where only a bound is given, the exact number is not on record here.

In general, IC50 refers to the point on the concentration scale where inhibition reaches its midpoint. In the case of `CC(=O)Oc1c(O)ccc(O)c1C[C@]1(C)[C@@H](C)CC[C@]2(C)C(C)=CCC[C@@H]12`, the IC50 in the experiment on P388 [1] was less than 1.6 nM.
For `CC1=CCC2C(CC[C@@]2(C)O)C(C)(C)[C@@H]1CC[C@H]1[C@@](C)(O)CCC2OC(C)(C)[C@H](O)CC[C@@]21C` (stereo not given in full), the 50% inhibitory concentration (IC50) in the experiment on PC-3 came to 7.9 µM; with A549 [2] it was 8.9 µM; in the experiment with KB 3-1 it was 4.8 nM.
In the case of `CC(=O)OC[C@]1(C)CCC[C@]2(C)[C@H]3C[C@@H](O)[C@]4(C)C5=C(CC[C@H]4[C@]3(C)CC[C@@H]12)COC5=O`, the IC50 in the experiment on A549 [3] is 2.2 nM; in the experiment on HT-29 [4], greater than 2.2 nM; with P388 [5] it was 2.2 nM.
With `CC1=C(CCC(C)(O)/C=C/C[C@@]2(C)CC[C@H]([C@@H](C)C(=O)O)OO2)C(C)(C)CCC1` (stereo not given in full), the IC50 is greater than 0.0024 µM in the experiment on A549 [2], greater than 2.4 nM in the experiment with P388 [6] and greater than 2.4 nM with HT-29 [7].
Regarding `CC(=O)O[C@H]1C[C@@H]2[C@@]3(C)CCCC(C)(C)[C@@H]3CC[C@@]2(C)[C@@H]2CC=C(C(C)=O)[C@@H]3[C@H](O)C[C@@]132`, the results for the IC50 with MCF7 [8], with HepG2 [9] and in the experiment with HCT-116 [10] were 2.4 nM, 4.7 nM and 0.6 nM, respectively.
For `O=C(O)c1cnc(-c2c[nH]c3cc(O)ccc23)c2[nH]c3ccc(O)cc3c12`, the IC50 stood at 30 µM in the experiment on A549 [11], 25 µM in the experiment on MDA-MB-231 [12] and 28 µM in the experiment on HT-29 [13].
On to `CCCCCCCCCCCCCCCCCCCCC[C@@H](O)[C@@H](O)[C@H](CO)NC(=O)[C@H](O)CCCCCCCCCCCCCCCC`, for which the IC50 in the experiment with MCF7 [14] was determined as 26.8 µM; in the experiment with HepG2 [15], 24.7 µM.
For `O=C(O)CCCC#C/C=C/CC/C=C/C#C/C=C/Br`, the half-maximal inhibitory concentration (IC50) in the experiment on Daoy was determined as 76.5 nM; in the experiment on HeLa [16], 138 nM.
Take `COC1=C(Br)C[C@@]2(OC=C1Br)ON=C(C(=O)NCCCOc1c(Br)cc(C(O)CNC(N)=O)cc1Br)[C@H]2O` (stereo not given in full): the IC50 in the experiment on HeLa [17] came to 17.6 µM; in the experiment on MDA-MB-231 [18] it was 13.2 µM; in the experiment with HCT-116 [19] it was 7 µM.
Take `CCCCCCCC/C=C\CCCCCCC[C@@H](O)C(=O)N[C@@H](CO)[C@H](O)[C@H](O)CCCCCCCCCCCCCCCCCCC`: the values for the half-maximal inhibitory concentration (IC50) with MCF7 [14] and with HepG2 [15] were 29.8 µM and 21.3 µM, respectively.
For the compound `CCCCCCCCCCCCC(=O)N[C@@H](CO)[C@H](O)[C@H](O)CCCCCCCCCC`, the half-inhibitory concentration (IC50) in the experiment on MCF7 [14] is greater than 200 µM; in the experiment with HepG2 [15] it was 107 µM.
Turning to `[O-][N+]12CCC[C@]3(O)CCCCCC[C@@H]4CCN5CCC[C@](O)(CCCCCC[C@H](CC1)O[C@@H]32)[C@@H]5O4` (stereo not given in full), the IC50 in the experiment with BT-474 was determined as 35.6 µM.
On to `C#C/C=C\CCCCCCCCCCC#CCCC(=O)NCCc1ccccc1`, for which the values for the IC50 with A549 [20] and with MCF7 [21] were 24.2 µM and 18 µM, respectively.
Take `CC1=C(CC/C(C)=C/CC[C@@]2(C)CC[C@H]([C@@H](C)C(=O)O)OO2)C(C)(C)CCC1`: the IC50 in the experiment on A549 [22] stood at 3000 nM; in the experiment with PC-3 it was 8 µM; with MCF7 [14], 7 µM.
As for `CC(=O)O[C@H]1C[C@H]2[C@@](C)(CCC3C(C)(C)CCC[C@@]32C)[C@@H]2C[C@@H](OC(C)=O)C(C(C)=O)=C[C@@]12C` (stereo not given in full), the IC50 was found to be 4.6 nM with MCF7 [8], 2.6 nM with HepG2 [9] and 2.7 nM in the experiment on HCT-116 [10].
On to `CC(=O)O[C@@H]1c2occc2[C@@H](O)C[C@H]2[C@]3(C)CC[C@H]4C(C)(C)CCC[C@]4(C)[C@H]3C[C@@]21C` [SALMAHYRTISOL A], for which the values for the IC50 in the experiment on A549 [3], in the experiment on HT-29 [4] and in the experiment with P388 [5] were 2.2 nM, greater than 2.2 nM and 2.2 nM, respectively.
Turning to `CC1=CCC[C@H]2[C@](C)(CC3=CC(=O)C=C(O)C3=O)[C@@H](C)CC[C@]12C`, the IC50 in the experiment with P388 [1] worked out at 1.8 nM.
Consider `CC(=O)OC1=C(C[C@]2(C)[C@@H](C)CC[C@]3(C)C(C)=CCC[C@@H]23)C(=O)C=CC1=O`, for which the IC50 with P388 [1] came to 30 nM.
With `CC(=O)O[C@H]1CC[C@]2(C)[C@H]3C[C@@H](O)[C@]4(C)C5=C(CC[C@H]4[C@]3(C)CC[C@H]2C1(C)C)COC5=O`, the IC50 in the experiment with A549 [3] was 2.2 nM; in the experiment with HT-29 [4], greater than 2.2 nM; in the experiment with P388 [5], 2.2 nM.
On to `O=C(O)CCCC#CC#C/C=C/CCCCCCC=C(Br)Br`, for which the IC50 with Daoy was 35.6 nM; with HeLa [16], 53.5 nM; in the experiment with HepG2 [15], 0.0412 µM.
As for `CC[C@@]1(C)CCC[C@]2(C)[C@H]3C[C@H](OC(C)=O)[C@]45C[C@@H](O)[C@H]4C(C(C)=O)=CC[C@H]5[C@]3(C)CC[C@@H]12`, the IC50 in the experiment on MCF7 [8] was 2.9 nM; in the experiment with HepG2 [9], 3.8 nM; in the experiment on HCT-116 [10], 2.9 nM.
